From PubChem BioAssay AID248 (DTP/NCI, 2004)
“And” between values parts separate entries of the source, which are not always exact repeats. Equal entries are not always repeated. Inconclusive results and toxic doses are left out. Cut-off read from the data, not from the text of the source: active = T/C of 150% or more; inactive = T/C below 125%.

Test system: L1210 leukemia ip in BDF1 mice, survival T/C
Test: NCI In Vivo Anticancer Drug Screen. Data for tumor model L1210 Leukemia (intraperitoneal) in B6D2F1 (BDF1) mice
Details: endpoint: mean survival time, higher = longer survival
Procedure, shortened: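 Each compound was tested against a transplantable tumor grown in mice. The endpoint was survival, with treated animals benchmarked against vehicle controls as a simple ratio.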

[1] = dose: 100.0 mg/kg/injection, schedule: Q04DX003 (ip), vehicle: saline with Tween-80
[2] = dose: 50.0 mg/kg/injection, schedule: Q01DX001 (ip), vehicle: carboxymethylcellulose (CMC)
[3] = dose: 100.0 mg/kg/injection, schedule: Q01DX001 (ip), vehicle: carboxymethylcellulose (CMC)
[4] = dose: 200.0 mg/kg/injection, schedule: Q01DX001 (ip), vehicle: carboxymethylcellulose (CMC)
[5] = dose: 400.0 mg/kg/injection, schedule: Q01DX001 (ip), vehicle: carboxymethylcellulose (CMC)
[6] = dose: 100.0 mg/kg/injection, schedule: Q01DX001 (ip), vehicle: saline
[7] = dose: 200.0 mg/kg/injection, schedule: Q01DX001 (ip), vehicle: saline
[8] = dose: 400.0 mg/kg/injection, schedule: Q01DX001 (ip), vehicle: saline
[9] = dose: 100.0 mg/kg/injection, schedule: Q04DX003 (ip), vehicle: Klucel (hydroxypropylcellulose) (HPC)
[10] = dose: 200.0 mg/kg/injection, schedule: Q04DX003 (ip), vehicle: Klucel (hydroxypropylcellulose) (HPC)
[11] = dose: 200.0 mg/kg/injection, schedule: Q04DX003 (ip), vehicle: saline with Tween-80
[12] = dose: 400.0 mg/kg/injection, schedule: Q04DX003 (ip), vehicle: saline with Tween-80
[13] = dose: 25.0 mg/kg/injection, schedule: Q04DX003 (ip), vehicle: saline
[14] = dose: 50.0 mg/kg/injection, schedule: Q04DX003 (ip), vehicle: saline
[15] = dose: 100.0 mg/kg/injection, schedule: Q01DX009 (ip), vehicle: Klucel (hydroxypropylcellulose) (HPC)
[16] = dose: 200.0 mg/kg/injection, schedule: Q01DX009 (ip), vehicle: Klucel (hydroxypropylcellulose) (HPC)
[17] = dose: 400.0 mg/kg/injection, schedule: Q01DX009 (ip), vehicle: Klucel (hydroxypropylcellulose) (HPC)

Measured: T/C

COc1cccc2c1C(=O)c1c(O)c3c(c(O)c1C2=O)CC(O)(C(C)=O)CC3OC1CC(NC(=S)Nc2ccccc2)C(O)C(C)O1 (stereo unspecified)
inactive: dose: 2.0 mg/kg/injection, schedule: Q04DX003 (ip), vehicle: water 105 % of control | dose: 3.12 mg/kg/injection, schedule: Q01DX009 (ip), vehicle: saline with Tween-80 117 % of control | dose: 4.0 mg/kg/injection, schedule: Q04DX003 (ip), vehicle: water 111 % of control | dose: 6.25 mg/kg/injection, schedule: Q01DX009 (ip), vehicle: saline with Tween-80 122 % of control | dose: 8.0 mg/kg/injection, schedule: Q04DX003 (ip), vehicle: water 106 % of control | dose: 12.5 mg/kg/injection, schedule: Q01DX009 (ip), vehicle: saline with Tween-80 123 % of control | dose: 16.0 mg/kg/injection, schedule: Q04DX003 (ip), vehicle: water 120 % of control and 123 % of control | dose: 32.0 mg/kg/injection, schedule: Q04DX003 (ip), vehicle: water 123 % of control | dose: 64.0 mg/kg/injection, schedule: Q04DX003 (ip), vehicle: water 118 % of control | dose: 125.0 micrograms/kg/injection, schedule: Q04DX003 (ip), vehicle: water 98 % of control | dose: 250.0 micrograms/kg/injection, schedule: Q04DX003 (ip), vehicle: water 103 % of control | dose: 500.0 micrograms/kg/injection, schedule: Q04DX003 (ip), vehicle: water 107 % of control | dose: 1000.0 micrograms/kg/injection, schedule: Q04DX003 (ip), vehicle: water 102 % of control | dose: 2000.0 micrograms/kg/injection, schedule: Q04DX003 (ip), vehicle: water 104 % of control

N#CC(C#N)=C1Cc2ccccc2C1
inactive: dose: 50.0 mg/kg/injection, schedule: Q04DX003 (ip), vehicle: saline with Tween-80 109 % of control | [1] 109 % of control

C[N+](C)(CCCN1C(=O)c2cccc3c(Br)ccc(c23)C1=O)Cc1ccc(Cl)c(Cl)c1
inactive: dose: 100.0 mg/kg/injection, schedule: Q01DX001 (ip), vehicle: other 98 % of control | dose: 200.0 mg/kg/injection, schedule: Q01DX001 (ip), vehicle: other 96 % of control | dose: 400.0 mg/kg/injection, schedule: Q01DX001 (ip), vehicle: other 93 % of control

COc1ccccc1CN1CCCN(Cc2ccccc2OC)C1c1ccccc1F
inactive: [2] 114 % of control | [3] 108 % of control | [4] 96 % of control | [5] 112 % of control

O=C1C(O)=C(O)C(=O)C(O)=C1O
inactive: [6] 103 % of control | [7] 100 % of control | [8] 105 % of control

CCCCCCCCCC[As]1c2ccccc2Nc2ccccc21
inactive: dose: 50.0 mg/kg/injection, schedule: Q04DX002 (ip), vehicle: saline with Tween-80 92 % of control | dose: 100.0 mg/kg/injection, schedule: Q04DX002 (ip), vehicle: saline with Tween-80 89 % of control | dose: 200.0 mg/kg/injection, schedule: Q04DX002 (ip), vehicle: saline with Tween-80 96 % of control

CCCCCCCCCCCCCCCC(=O)NCCO
inactive: dose: 50.0 mg/kg/injection, schedule: Q01DX009 (ip), vehicle: saline sonified 96 % of control | dose: 50.0 mg/kg/injection, schedule: Q04DX003 (ip), vehicle: Klucel (hydroxypropylcellulose) (HPC) 91 % of control | dose: 100.0 mg/kg/injection, schedule: Q01DX009 (ip), vehicle: saline sonified 91 % of control | [9] 106 % of control | dose: 200.0 mg/kg/injection, schedule: Q01DX009 (ip), vehicle: saline sonified 96 % of control | [10] 96 % of control and 89 % of control

O=C(O)/C=C\C(=O)Nc1ccccc1C(=O)O
inactive: [1] 98 % of control | [11] 97 % of control | [12] 111 % of control

Cc1ccc(C(C)(c2ccccc2)C(C)(CC=O)CC(=O)O)cc1 (stereo unspecified)
inactive: [1] 92 % of control | [11] 92 % of control | [12] 96 % of control

CC(C)=CCOc1ccc(C(=O)O)cc1
inactive: [6] 100 % of control | [7] 116 % of control | [8] 107 % of control

C#CCN1CCCC1
inactive: dose: 12.5 mg/kg/injection, schedule: Q04DX003 (ip), vehicle: saline 92 % of control | [13] 92 % of control | [14] 95 % of control

CCC1C(=O)N(C)c2ccccc21 (stereo unspecified)
inactive: dose: 100.0 mg/kg/injection, schedule: Q01DX001 (ip), vehicle: acetone 100 % of control | dose: 200.0 mg/kg/injection, schedule: Q01DX001 (ip), vehicle: acetone 96 % of control | dose: 400.0 mg/kg/injection, schedule: Q01DX001 (ip), vehicle: acetone 97 % of control

O=C1/C(=C/c2ccco2)CC/C1=C\c1ccco1
inactive: dose: 100.0 mg/kg/injection, schedule: Q01DX001 (ip), vehicle: Klucel (hydroxypropylcellulose) (HPC) 93 % of control | [9] 94 % of control | dose: 200.0 mg/kg/injection, schedule: Q01DX001 (ip), vehicle: Klucel (hydroxypropylcellulose) (HPC) 101 % of control | [10] 96 % of control | dose: 400.0 mg/kg/injection, schedule: Q01DX001 (ip), vehicle: Klucel (hydroxypropylcellulose) (HPC) 95 % of control | dose: 400.0 mg/kg/injection, schedule: Q04DX003 (ip), vehicle: Klucel (hydroxypropylcellulose) (HPC) 96 % of control

CC1CCOCO1 (stereo unspecified)
inactive: [2] 98 % of control | [3] 98 % of control | [4] 95 % of control | [5] 95 % of control

O=S(=O)(O)SCNCNCCSCc1ccccc1
inactive: dose: 12.5 mg/kg/injection, schedule: Q04DX002 (ip), vehicle: Klucel (hydroxypropylcellulose) (HPC) 91 % of control | dose: 25.0 mg/kg/injection, schedule: Q04DX002 (ip), vehicle: Klucel (hydroxypropylcellulose) (HPC) 112 % of control | dose: 50.0 mg/kg/injection, schedule: Q04DX002 (ip), vehicle: Klucel (hydroxypropylcellulose) (HPC) 91 % of control

O=C(C[n+]1ccccc1)N/N=C/c1ccc(O)c(O)c1
inactive: dose: 50.0 mg/kg/injection, schedule: Q01DX009 (ip), vehicle: saline with Tween-80 104 % of control | dose: 100.0 mg/kg/injection, schedule: Q01DX009 (ip), vehicle: saline with Tween-80 106 % of control | [1] 110 % of control | dose: 200.0 mg/kg/injection, schedule: Q01DX009 (ip), vehicle: saline with Tween-80 117 % of control | [11] 110 % of control

CNCCC=C1c2ccccc2CCc2ccccc21
inactive: dose: 3.12 mg/kg/injection, schedule: Q01DX009 (ip), vehicle: saline 101 % of control | dose: 6.25 mg/kg/injection, schedule: Q01DX009 (ip), vehicle: saline 101 % of control | dose: 12.5 mg/kg/injection, schedule: Q01DX009 (ip), vehicle: saline 106 % of control | dose: 25.0 mg/kg/injection, schedule: Q01DX009 (ip), vehicle: saline 106 % of control | [13] 96 % of control | dose: 50.0 mg/kg/injection, schedule: Q01DX009 (ip), vehicle: saline 117 % of control | [14] 96 % of control

N#CC(N)=NC1CCC(C2CCC(O)CC2)CC1 (stereo unspecified)
inactive: [15] 94 % of control | [16] 96 % of control | [17] 96 % of control

Cc1ccc([N+](=O)[O-])cc1NC(=O)Nc1cccc2ccc(O)cc12
inactive: [15] 95 % of control | [16] 93 % of control | [17] 104 % of control
